Experimental findings from patent US20240245627A1, “ALKENE QUINONE COMPOUNDS AND METHODS OF USE” (University of Pittsburgh - Of the Commonwealth System of …, priority 2021, published 2024) are described below.

One experiment deals with T1, Recombinant CYB5R3 (Homo sapiens, UniProt P00387).
T1 sequence (P00387 1-301): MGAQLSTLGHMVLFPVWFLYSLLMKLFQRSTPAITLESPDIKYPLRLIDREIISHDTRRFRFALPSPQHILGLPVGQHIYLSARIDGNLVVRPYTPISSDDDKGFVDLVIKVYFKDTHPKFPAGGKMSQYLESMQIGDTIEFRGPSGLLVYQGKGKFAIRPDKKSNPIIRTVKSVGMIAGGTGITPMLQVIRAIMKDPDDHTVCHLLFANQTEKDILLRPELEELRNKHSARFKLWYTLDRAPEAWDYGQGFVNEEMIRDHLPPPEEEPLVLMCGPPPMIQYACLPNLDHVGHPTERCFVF
The experiment is described as follows: Reduction of oxidized myoglobin by recombinant CYB5R3 (NADH-initiated, absorbance). The class given is biochemical. Here is the method:
FIGS. 2a-2c. Reduction of oxidized myoglobin by CYB5R3 is not affected by (FIG. 2a) oleic acid or (FIG. 2b) Q-OA (CoQ-linked oleic acid). Q-NA enhanced (FIG. 2c) CYB5R3 reduction of myoglobin. Error bars are S.E.M. and n=3.
Recombinant CYB5R3 was incubated with nitro-oleic acid, CoQ-linked oleic acid or Q-NA along with oxidized myoglobin. NADH stimulation initiated the reaction and absorbance changes were monitored which is indicative of myoglobin reduction. Q-NA increased myoglobin heme reduction whereas the other compounds had no effect (FIG. 2). Q-NA alone had no effect on myoglobin reduction.

The test system of experiment [1] is RPS/RPL gene expression in human aortic endothelial cells. The experiment is described as follows: RPS/RPL gene transcription in human aortic endothelial cells (RNA sequencing). It is filed as cell-based. The following applies: 5 μM, 6 hours. Here is the method: FIG. 9. NO2—OA and Q-NA stimulate divergent effects of RSP/RPL gene transcription in aortic endothelial cells.
Human aortic endothelial cells were stimulated with vehicle (dimethylsulfoxide, (DMSO)), 5 μM of NO2—OA, or 5 μM Q-NA. Following 6 hours of stimulation, cells were lysed and RNA sequencing was performed.

For the compound `CCCCCCCC/C=C\CCCCCCCC(=O)O` [oleic acid, octadece-9-noic acid], at Recombinant CYB5R3, the “myoglobin heme reduction by CYB5R3” value is “not affected”.

“9-, 10-nitro octadece-9-noic acid [NO2—OA]”: the “myoglobin heme reduction by CYB5R3” value on Recombinant CYB5R3 is “no effect”. The “RPS/RPL gene expression compared to Q-NA treatment” value in experiment [1] is recorded as “opposing effects”.
